The text below walks through data of patent US11524966B1 (Valo Early Discovery, Inc., priority 2017, dated 2022).

Molecules are shown by their SMILES.

This experiment has as its target T1, USP28 (His-tagged USP28-FL-mammalian) (Homo sapiens, UniProt Q96RU2).
T1 construct: Expression of USP28 (1-1077)-TEV-6*His (pTT5 vector); made in house; host or cells: Expi293f cells (pTT5 vector)
T1 sequence (Q96RU2 1-1077): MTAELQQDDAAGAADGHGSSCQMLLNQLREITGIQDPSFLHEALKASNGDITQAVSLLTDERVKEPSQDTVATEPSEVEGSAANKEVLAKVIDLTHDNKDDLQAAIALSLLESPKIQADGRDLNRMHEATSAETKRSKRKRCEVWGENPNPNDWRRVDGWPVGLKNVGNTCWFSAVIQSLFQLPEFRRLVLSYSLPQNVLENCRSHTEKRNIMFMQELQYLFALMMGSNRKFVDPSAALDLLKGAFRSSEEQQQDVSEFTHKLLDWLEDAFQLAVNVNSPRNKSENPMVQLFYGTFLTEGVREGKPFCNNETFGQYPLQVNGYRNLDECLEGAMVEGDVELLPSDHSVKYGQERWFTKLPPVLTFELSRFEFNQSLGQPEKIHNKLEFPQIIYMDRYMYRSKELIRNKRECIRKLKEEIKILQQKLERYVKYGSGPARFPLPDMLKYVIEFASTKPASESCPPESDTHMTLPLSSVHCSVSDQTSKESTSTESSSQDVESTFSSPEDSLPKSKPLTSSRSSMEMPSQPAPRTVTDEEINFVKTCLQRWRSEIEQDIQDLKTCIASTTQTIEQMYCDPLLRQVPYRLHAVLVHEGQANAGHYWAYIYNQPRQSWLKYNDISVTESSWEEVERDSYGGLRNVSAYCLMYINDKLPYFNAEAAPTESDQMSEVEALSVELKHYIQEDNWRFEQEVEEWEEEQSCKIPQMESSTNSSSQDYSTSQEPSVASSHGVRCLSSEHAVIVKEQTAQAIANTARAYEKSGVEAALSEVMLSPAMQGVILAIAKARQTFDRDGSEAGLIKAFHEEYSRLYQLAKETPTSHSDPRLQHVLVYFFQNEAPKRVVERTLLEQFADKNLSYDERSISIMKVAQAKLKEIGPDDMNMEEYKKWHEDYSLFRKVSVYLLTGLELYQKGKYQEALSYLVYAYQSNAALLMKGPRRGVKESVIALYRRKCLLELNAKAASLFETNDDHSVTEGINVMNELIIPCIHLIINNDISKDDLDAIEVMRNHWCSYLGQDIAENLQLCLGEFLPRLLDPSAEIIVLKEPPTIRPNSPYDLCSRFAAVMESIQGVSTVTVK
Description: Ubiquitin-Rhodamine 110 Assay for USP28 Activity, Example A-1(a). The note with it: Ubiquitin-Rhodamine 110 assay, format Example A-1(a); read-out: USP28 A-1(a) IC50 range. The class given is biochemical. Put shortly:
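IC50 from 4-parameter logistic fit of percent inhibition versus no-enzyme and DMSO controls; compounds 25 μM to 1.3 nM, 3-fold. Ub-Rh110 cleavage (25 nM, below Km) by […] mammalian-expressed USP28-FL-His ran 45 min at room temperature, stopped with 10 mM citric acid, read ex 485/em 535.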
The term IC50 denotes the concentration at which inhibition is half-maximal. Consider `Cc1cnc2c(N)c(C(=O)N[C@@H]3CCc4cc(N5CC6CCC(C5)N6)c(C#N)cc4C3)sc2n1` (single isomer, unassigned) [Example 14-7], for which the IC50 fell in the range of 200 to 2000 nM.

On to `Cc1cnc2c(N)c(C(=O)N[C@H]3CCc4cc(N5CC6CCC(C5)N6)c(C#N)cc4C3)sc2n1` (single isomer, unassigned) [Example 14-8], for which the IC50 is 1 to 50 nM.

For the molecule `Cc1ccc2c(N)c(C(=O)N[C@H]3CCc4c(ccc(N5CC6CCC(C5)N6)c4C#N)C3)sc2n1` (single isomer, unassigned) [Example 14-2], the IC50 lay in the range of 50 to 200 nM.

`Cc1ccc2c(N)c(C(=O)N[C@@H]3CCc4c(ccc(N5CC6CCC(C5)N6)c4C#N)C3)sc2n1` (single isomer, unassigned) [Example 14-1]: the IC50 fell in the range of 1 to 50 nM.

Regarding `Cc1ccc2c(N)c(C(=O)N[C@@H]3CCc4cc(N5CC6CCC(C5)N6)c(C#N)cc4C3)sc2n1` (single isomer, unassigned) [Example 14-3], the IC50 lay within 200 to 2000 nM.

Turning to `Cc1cnc2c(N)c(C(=O)N[C@@H]3CCc4c(ccc(N5CC6CCC(C5)N6)c4C#N)C3)sc2n1` (single isomer, unassigned) [Example 14-5], the IC50 is 1 to 50 nM.

In the case of `Cc1ccc2c(N)c(C(=O)N[C@H]3CCc4cc(N5CC6CCC(C5)N6)c(C#N)cc4C3)sc2n1` (single isomer, unassigned) [Example 14-4], the IC50 was 1 to 50 nM.

On to `Cc1cnc2c(N)c(C(=O)N[C@H]3CCc4c(ccc(N5CC6CCC(C5)N6)c4C#N)C3)sc2n1` (single isomer, unassigned) [Example 14-6], for which the IC50 lay in the range of 200 to 2000 nM.
